In US20250360118A1, “TREATMENT OF FIBROTIC DISORDERS WITH METABOTROPIC GLUTAMATE RECEPTOR 5 ANTAGONISTS OR/AND CANNABINOID RECEPTOR 1 ANTAGONISTS” (THE UNITED STATES OF AMERICA,AS REPRESENTED BY THE …, priority 2022, published 2025):
“Also recorded” adds a separate entry of the source.

Columns and labels:
Format in all cases: in vivo, mice
[1] = system: bleomycin-induced PF mouse model; test: Lung function measurements (FlexiVent) in bleomycin-induced PF mouse model
Procedure: (§1) The compounds were administered by oral gavage once daily as indicated. The vehicle was a 1:1:18 ratio of DMSO:Tween® 80:saline. Oral formulations were applied at 0.3 and 3 mg/mL concentrations to achieve doses of 3 and 30 mg/kg, respectively.
All animal procedures were conducted in accordance with the rules and regulations of the Institutional Animal Care and Use Committee of the National Institutes of Alcohol Abuse and Alcoholism (NIAAA), under the protocols of LPS-GK1. Thirteen-week-old male C57BL/6J mice were obtained from The Jackson Laboratory (Bar Harbor, Maine, USA). Grm5^−/− (mGluR5 KO) mice (JAX 003121) were purchased from The Jackson Laboratory. […] (CB1R KO) mice were generated as described in Zimmer et al., Proc. Natl. Acad. Sci. USA, 96:5780-5785 (1999). Cnr1^−/− and Grm5^−/− mice were on a C57BL/6J genetic background. Both Grm5^−/− and Cnr1^−/− mice colonies were maintained with heterozygous breeding. […]
Respiratory system mechanics measurements were performed using the FlexiVent FX system (SCIREQ Inc., Montreal, Canada), which is equipped with an FX1 module and negative pressure forced expiration (NPFE) extension for mice. […] Pressure-volume (PV) curve, airway resistance, tissue damping (G), tissue elastance (H), forced expiratory volume per 0.1 seconds (FEV 0.1), forced vital capacity (FVC), inspiratory capacity (IC), and inhaled air amount (A) parameters were measured. […]

[2] = system: bleomycin-induced PF mouse model; test: Survival in bleomycin-induced pulmonary fibrosis mouse model
Procedure: as §1
(§2) All animal procedures were conducted in accordance with the rules and regulations of the Institutional Animal Care and Use Committee of the National Institutes of Alcohol Abuse and Alcoholism (NIAAA), under the protocols of LPS-GK1. Thirteen-week-old male C57BL/6J mice were obtained from The Jackson Laboratory (Bar Harbor, Maine, USA). Grm5^−/− (mGluR5 KO) mice (JAX 003121) were purchased from The Jackson Laboratory. […] (CB1R KO) mice were generated as described in Zimmer et al., Proc. Natl. Acad. Sci. USA, 96:5780-5785 (1999). Cnr1^−/− and Grm5^−/− mice were on a C57BL/6J genetic background. Both Grm5^−/− and Cnr1^−/− mice colonies were maintained with heterozygous breeding. Mice were housed individually under a 12-hour light/dark cycle and fed a standard diet, ad libitum (Teklad NIH-31; Envigo, Huntingdon, UK).
A bleomycin-induced pulmonary fibrosis model by delivery of bleomycin via oropharyngeal aspiration was generated as described in Park et al., Am. J. Respir. Cell Mol. Biol., 62(2):178-190 (2020). Briefly, bleomycin was delivered to mice anesthetized with ketamine/xylazine through the oropharynx at 1 U/kg dose using a sterile 100 μL pipette during inspiration at a volume of 100 μL/50 g body weight. Sterile saline was used as vehicle and applied to the control groups. The animals were then allowed to recover from the anesthesia.
Survival curves were plotted using GraphPad Prism 9 software. Survival was analyzed by using Log-rank (Mantel-Cox) test for assessing the statistical difference between animal groups.

[3] = system: bleomycin-induced PF mouse model; test: Body weight in bleomycin-induced PF mouse model; conditions: basimglurant 3 mg/kg oral, days 8 to 28 after single bleomycin administration, vs vehicle
Procedure: as §1, §2
A bleomycin-induced pulmonary fibrosis model by delivery of bleomycin via oropharyngeal aspiration was generated as described in Park et al., Am. J. Respir. Cell Mol. Biol., 62(2):178-190 (2020). […]

[4] = system: bleomycin-induced PF mouse model; test: Lung hydroxyproline (fibrosis marker) in bleomycin-induced PF mouse model; conditions: fenobam 30 mg/kg daily oral for 14 days vs vehicle, bleomycin 1 U/kg
Procedure: as §1
as §2, with “UK). […]” for “UK).”
The degree of lung fibrosis was quantified biochemically by measuring the hydroxyproline content of lung extracts using liquid chromatography/tandem mass spectrometry (LC-MS/MS) as described in Park et al., Am. […]

[5] = basimglurant 3 mg/kg oral, days 8 to 28 after single bleomycin administration, vs vehicle

## Cc1nc(C#Cc2ccnc(Cl)c2)c(C)n1-c1ccc(F)cc1 [basimglurant]
[1]; [5]
  pulmonary tissue stiffness: reduced pulmonary tissue stiffness
[2]; [5]
  survival rate (in words): increased survival rate
[3]
  body weight loss: reduced body weight loss

## Cc1nc(C#Cc2ccnc(Cl)c2)c(C)n1-c1ccc(OC(F)(F)F)cc1 [CTEP, 2-chloro-4-((2,5-dimethyl-1-(4-(trifluoromethoxy)phenyl)-1H-imidazol-4-yl)ethynyl)pyridine]
[2]; CTEP 3 mg/kg daily oral for 28 days after single oropharyngeal bleomycin 1 U/kg, vehicle-treated mice 50%
  survival rate: 100%
[2]; CTEP 3 mg/kg daily oral gavage vs vehicle, bleomycin 1 U/kg
  survival (in words): significantly improved survival; also recorded: prevented mortality

## CN1CC(=O)NC1=NC(=O)Nc1cccc(Cl)c1 [fenobam]
[4]
  fibrosis as measured by hydroxyproline level in lungs: significantly attenuated fibrosis; also recorded: attenuated pulmonary fibrosis
[1]; fenobam 30 mg/kg daily oral for 14 days vs vehicle, bleomycin 1 U/kg
  decline in pulmonary function parameter: forced expiratory volume (FEV) at 0.1 sec. (air flow): significantly attenuated
